# From US20220242874A1, “CAMPTOTHECIN DERIVATIVES” (SUN PHARMA ADVANCED RESEARCH COMPANY LIMITED, priority 2019, published 2022)
# Structures can show the parent of a compound that is named as a salt. Where two headings read alike, the source gives them in different places.
# How the values were obtained:
# [1] = Buffer stability (phosphate buffer, 37° C., HPLC); type: physicochemical
# Experimental: The representative compounds were first dissolved in a minimum quantity of DMSO in a volumetric flask and diluted up to the mark with diluent (water: acetonitrile 30:70). […] After the elapsed time, the buffer samples were diluted 4 times with acetonitrile and injected into an HPLC system. Quantification of representative compounds was done by HPLC.
# HPLC method: Chromatographic separation was achieved on a Hypersil BDS C18 (100×4.6 mm, 5 μ) column using 25 mM KH2PO4 buffer (pH 7 with TEA): acetonitrile, 90:10 v/v as mobile phase-A and 25 mM KH2PO4 buffer (pH 7 with TEA): acetonitrile 30:70 v/v as mobile phase-B. The gradient started with initially 5% B to 45% B in 10 mins followed by 80% B in 22 mins and held up to 25 mins and then returned to initial conditions at 26 mins and continued up to 30 mins. The injection volume was kept 10 μL and the flow rate was kept at 1.0 mL/min. The UV-Vis Detector was set at 220 nm, the column oven was set at 37° C. and the sample cooler was set at […]. Total chromatographic runtime was 30 min.
# HT-29 cells = test: In-vitro cancer cell growth inhibition assay (MTT); type: cell-based; conditions: Homo sapiens, HT-29, 96 h, read-out: IC50 (nM) HT-29
# Experimental: (§1) The compounds of the present invention were evaluated for their ability to inhibit the growth of various cell line models of small cell lung cancer (SCLC), colon cancer, pancreatic cancer and triple negative breast cancer (TNBC) in-vitro. Details of the cell lines and their respective complete growth media are described in Table 3. The growth inhibition assay was carried out as described below. Briefly, cells in complete growth media were seeded in 96-well plates at appropriate cell densities (seeding density details described in Table 3) and incubated at 37° C., 5% CO2 (3-4 hours for NCI-H526, NCI-H69, NCI-H187 and overnight for the rest of the cells). Serial dilutions of test compound in DMSO were added to the cells while maintaining the final DMSO concentration of 0.4%-0.5% in the well. Plates were incubated for 96-144 h (the exact duration for each assay is described in Table 3) at 37° C., 5% CO2. Subsequently, MTT (final concentration 0.5 mg/mL in media) was incubated with the cells at 37° C., 5% CO2 for 4-5 hours. The formazan crystals were dissolved overnight at 37° C., 5% CO2 using 100 μL extractant (10% SDS in 0.01N HCl) and quantified using absorbance at 570 nm with reference wavelength 630 nm. Growth inhibition was represented as percent decrease in absorbance compared to vehicle treated cells.
# NCI H69 cells = test: In-vitro cancer cell growth inhibition assay (MTT); type: cell-based; conditions: Homo sapiens, NCI-H69, 144 h, read-out: IC50 (nM) NCI H69
# Experimental: as §1
# PANC-1 cells = test: In-vitro cancer cell growth inhibition assay (MTT); type: cell-based; conditions: Homo sapiens, PANC-1, 96 h, read-out: IC50 (nM) PANC-1
# Experimental: as §1
# NCI H526 cells = test: In-vitro cancer cell growth inhibition assay (MTT); type: cell-based; conditions: Homo sapiens, NCI-H526, 96-144 h, read-out: IC50 (nM) NCI H526
# Experimental: as §1
# NCI H187 cells = test: In-vitro cancer cell growth inhibition assay (MTT); type: cell-based; conditions: Homo sapiens, NCI-H187, read-out: IC50 (nM) NCI H187
# Experimental: as §1, with “Plates were incubated for 96-144 h (the exact duration for each assay is described in Table 3) at 37° C., 5% CO2.” left out
# MDA-MB-231 cells = test: In-vitro cancer cell growth inhibition assay (MTT); type: cell-based; conditions: Homo sapiens, MDA-MB-231, 96 h, read-out: IC50 (nM) MDA-MB-231
# Experimental: as §1
# MDA-MB-468 cells = test: In-vitro cancer cell growth inhibition assay (MTT); type: cell-based; conditions: Homo sapiens, MDA-MB-468, 96 h, read-out: IC50 (nM) MDA-MB-468
# Experimental: as §1
# MX-1 cells = test: In-vitro cancer cell growth inhibition assay (MTT); type: cell-based; conditions: Homo sapiens, MX1, 144 h, read-out: IC50 (nM) MX-1
# Experimental: as §1
# [2] = mouse, 2000 ng/mL, pH 5.5
# Experimental: Aliquot of 100 μL were taken from stability samples in pre-labelled micro-centrifuge tubes. 5 μL of cetirizine working internal standard (5 μg/mL) was added to each tube and vortexed well. 1 mL acetonitrile was added to each tube and vortexed well and then centrifuge at 10000 RPM for 5 min at room temperature. The supernatant was collected in ria vials and evaporated to dryness under nitrogen stream. The samples were reconstituted in 1 mL of 0.1% formic acid in water: acetonitrile 30:70 v/v. The prepared samples were analyzed using LC-MS/MS method. Quantification was done against SN-38 standard, prepared at 2000 ng/mL concentration. SN-38 standard prepared by spiking 5 μL of SN-38 working standard to 95 μL of blank mice tumor homogenate to achieve 2000 ng/mL concentration and vortexed well and processed as described.
# LC-MS/MS Method: Chromatographic separation was achieved on Inertsil C8-3 (50×4.6 mm, 5 μ) with a flow rate of 250 μL/min and an injection volume of 10 μL. The sample cooler was maintained at 10° C. The column oven temperature was set to 40° C. The mobile phase consisted of 0.1% formic acid in Milli Q water and acetonitrile in the ratio of 30:70 v/v, respectively. […] The overall chromatographic run time was 4.0 minutes.
# Detection was performed by tandem mass spectrometry (TSQ Quantum, Discovery MAX, Thermo Electron Corporation) and peak areas were integrated using LCquan software version 2.9 QF1.
# 0 hr standard area was considered as 100% for calculation.
Structure (SMILES),"% of Unconverted Compounds of Formula I ([1]; pH 4.7, 0 hr, 200 μg/ml)","% of Unconverted Compounds of Formula I ([1]; pH 4.7, 2 hr, 200 μg/ml)","% of Unconverted Compounds of Formula I ([1]; pH 4.7, 4 hr, 200 μg/ml)","% of Unconverted Compounds of Formula I ([1]; pH 4.7, 6 hr, 200 μg/ml)","% of Unconverted Compounds of Formula I ([1]; pH 4.7, 8 hr, 200 μg/ml)","% of Unconverted Compounds of Formula I ([1]; pH 6.0, 0 hr, 200 μg/ml)","% of Unconverted Compounds of Formula I ([1]; pH 6.0, 2 hr, 200 μg/ml)","% of Unconverted Compounds of Formula I ([1]; pH 6.0, 4 hr, 200 μg/ml)","% of Unconverted Compounds of Formula I ([1]; pH 6.0, 6 hr, 200 μg/ml)","% of Unconverted Compounds of Formula I ([1]; pH 6.0, 8 hr, 200 μg/ml)","% of Unconverted Compounds of Formula I ([1]; pH 7.4, 0 hr, 200 μg/ml)","% of Unconverted Compounds of Formula I ([1]; pH 7.4, 2 hr, 200 μg/ml)","% of Unconverted Compounds of Formula I ([1]; pH 7.4, 4 hr, 200 μg/ml)","% of Unconverted Compounds of Formula I ([1]; pH 7.4, 6 hr, 200 μg/ml)","% of Unconverted Compounds of Formula I ([1]; pH 7.4, 8 hr, 200 μg/ml)",IC50 (HT-29 cells),IC50 (NCI H69 cells),IC50 (PANC-1 cells),IC50 (NCI H187 cells),further results
"CCc1c2c(nc3ccc(O)cc13)-c1cc3c(c(=O)n1C2)COC(=O)[C@@]3(CC)OC(=O)CCCSSCCCC(=O)Nc1ccc(N2CCN(C)CC2)cc1.Cl [Compound I.1, 4-[3-(4-(4-Methylpiperazin-1-yl)phenylcarbamoyl)propyldisulfanyl][(4S)-4,11-diethyl-3,4,12,14-tetrahydro-9-hydroxy-1H-pyrano[3′,4′:6,7]indolizino[1,2-b]quinoline-3,14-(4H,12H)dione-4-yl]butyrate hydrochloride]",100%,96.3%,97.4%,100.0%,100%,100%,95.4%,97.1%,97.2%,97.1%,100%,97.7%,95.5%,100.0%,100%,–,–,–,–,–
"CCc1c2c(nc3ccc(O)cc13)-c1cc3c(c(=O)n1C2)COC(=O)[C@@]3(CC)OC(=O)OCCSSCCOC(=O)N(C)c1ccc(N2CCN(C)CC2)cc1.Cl [Compound I.3, 2-(2-{N-Methyl-N-[4-(4-methylpiperazin-1-yl)phenyl]carbamoyloxy}ethyldisulfanyl)ethyl [(4S)-4,11-diethyl-3,4,12,14-tetrahydro-9-hydroxy-1H-pyrano[3′,4′:6,7]indolizino[1,2-b]quinoline-3,14-(4H,12H)dione-4-yl] carbonate hydrochloride]",100%,100%,100%,100%,100%,100%,93.8%,97.8%,98.2%,100%,100%,100%,100%,100%,100%,43.7 nM,1.2 nM,862 nM,0.68 nM,IC50 (NCI H526 cells): 1.91 nM
"CCc1c2c(nc3ccc(O)cc13)-c1cc3c(c(=O)n1C2)COC(=O)[C@@]3(CC)OC(=O)OCCSSCCNC(=O)c1ccc(CN2CCN(C)CC2)cc1 [Compound I.6, 2-(2-{4-[4-Methylpiperazin-1-ylmethyl]benzoylamino}ethyldisulfanyl)ethyl [(4S)-4,11-diethyl-3,4,12,14-tetrahydro-9-hydroxy-1H-pyrano[3′,4′:6,7]indolizino[1,2-b]quinoline-3,14-(4H,12H)dione-4-yl] carbonate dihydrochloride]",–,–,–,–,–,–,–,–,–,–,–,–,–,–,–,15.7 nM,2.3 nM,1140 nM,0.23 nM,"% of Unconverted Compounds of Formula I ([1]; pH 4.7, 0 hr, 100 μg/ml (footnote *)): 100%; % of Unconverted Compounds of Formula I ([1]; pH 4.7, 2 hr, 100 μg/ml (footnote *)): 96.8%; % of Unconverted Compounds of Formula I ([1]; pH 4.7, 4 hr, 100 μg/ml (footnote *)): 89.8%; % of Unconverted Compounds of Formula I ([1]; pH 4.7, 8 hr, 100 μg/ml (footnote *)): 89.0%; % of Unconverted Compounds of Formula I ([1]; pH 6.0, 0 hr, 100 μg/ml (footnote *)): 100%; % of Unconverted Compounds of Formula I ([1]; pH 6.0, 2 hr, 100 μg/ml (footnote *)): 89.9%; % of Unconverted Compounds of Formula I ([1]; pH 6.0, 4 hr, 100 μg/ml (footnote *)): 89.4%; % of Unconverted Compounds of Formula I ([1]; pH 6.0, 6 hr, 100 μg/ml (footnote *)): 82.5%; % of Unconverted Compounds of Formula I ([1]; pH 6.0, 8 hr, 100 μg/ml (footnote *)): 84.3%; % of Unconverted Compounds of Formula I ([1]; pH 7.4, 0 hr, 100 μg/ml (footnote *)): 100%; % of Unconverted Compounds of Formula I ([1]; pH 7.4, 2 hr, 100 μg/ml (footnote *)): 90.7%; % of Unconverted Compounds of Formula I ([1]; pH 7.4, 4 hr, 100 μg/ml (footnote *)): 81.4%; % of Unconverted Compounds of Formula I ([1]; pH 7.4, 6 hr, 100 μg/ml (footnote *)): 83.7%; % of Unconverted Compounds of Formula I ([1]; pH 7.4, 8 hr, 100 μg/ml (footnote *)): 84.6%; IC50 (MDA-MB-231 cells): 158 nM; IC50 (MDA-MB-468 cells): 13.7 nM; IC50 (MX-1 cells): 5.4 nM"
"CCc1c2c(nc3ccc(OC(=O)N4CCC(N5CCCCC5)CC4)cc13)-c1cc3c(c(=O)n1C2)COC(=O)[C@]3(O)CC [Irinotecan, irinotecan hydrochloride]",–,–,–,–,–,–,–,–,–,–,–,–,–,–,–,–,–,–,–,% Remaining in tumor lysate ([2]; 0 h): 100.0%; Concentration of SN-38 formed from the substance ([2]; 0 h): 0.0 ng/mL; % Remaining in tumor lysate ([2]; 1 h): 110.5%; Concentration of SN-38 formed from the substance ([2]; 1 hr): 9.4 ng/mL; % Remaining in tumor lysate ([2]; 2 h): 95.4%; Concentration of SN-38 formed from the substance ([2]; 2 hr): 17.5 ng/mL; % Remaining in tumor lysate ([2]; 4 h): 93.1%; Concentration of SN-38 formed from the substance ([2]; 4 hr): 22.8 ng/mL; % Remaining in tumor lysate ([2]; 6 h): 82.3%; Concentration of SN-38 formed from the substance ([2]; 6 hr): 25.5 ng/mL; Concentration of SN-38 formed from the substance ([2]; 8 h): 29.6 ng/mL
